Results as given in PubChem BioAssay AID351 (ChemBlock, 2006).
The source made the active and inactive calls.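 Rule for the calls: active = compounds that disrupt early egg division and make hatched embryos spin fast in place instead of swimming forward; inactive = the rest.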

Assay: sea urchin embryo cleavage alteration, tubulin destabilizer project, whole organism, microscopy (AID 351)
Conditions: sea urchin embryo, cleavage alteration, microscopy

Row | SMILES | outcome
1 | Cc1[nH]c2ccc(OC(F)(F)F)cc2c1CCNC(=O)Cc1ccc(Cl)cc1 | inactive; up to 10 µM
2 | c1cncc(CNc2cn[nH]c2-c2nnc(Nc3ccc4c(c3)OCCO4)o2)c1 | inactive; up to 10 µM
3 | NC(=O)c1nscc1NCc1cccnc1 | inactive; up to 50 µM
4 | O=C(Nc1ccc(F)cc1)C(=O)c1cn(Cc2ccc(Cl)cc2)c2ccccc12 | inactive; up to 5 mM
5 | O=C(Nc1cccc(C(F)(F)F)c1)c1nscc1NCc1ccc2c(c1)OCO2 | inactive; up to 5 µM
6 | c1cnc(-c2nc(-c3ccc4c(c3)OCO4)no2)cn1 | inactive; up to 5 µM
7 | COc1ccc(-c2nc(Nc3nc(C)cc(C)n3)n[nH]2)cc1OC | inactive; up to 10 µM
8 | Nc1csnc1C(=O)Nc1cccc(C(F)(F)F)c1 | inactive; up to 5 µM
9 | COc1ccc2[nH]cc(CCN)c2c1 | inactive; up to 50 µM
10 | CCOc1cc(CNc2cccc3[nH]c(C)nc23)ccc1OC | inactive; up to 50 µM
11 | COc1ccc(C(=O)c2c(N)nc3n2CCC3)cc1OC | inactive; up to 5 mM
12 | COc1cc(-c2nc(-c3ccncc3)no2)cc(OC)c1OC | inactive; up to 10 µM
13 | O=c1c(O)c(-c2ccc(O)c(O)c2)oc2cc(O)cc(O)c12 | inactive; up to 100 µM
14 | COc1ccc(-c2csc(Nc3ccccc3OC)n2)cc1Br | inactive; up to 5 mM
15 | COc1ccc(Nc2nc(-c3ccc(OC)c(OC)c3)cs2)cc1 | inactive; up to 50 µM
16 | Cc1[nH]c2ccc(OC(F)(F)F)cc2c1CCN1C(=O)C2CCCCC2C1=O (stereo not given) | inactive; up to 10 µM
17 | O=C(Nc1cccc(C(F)(F)F)c1)C(=O)c1cn(Cc2ccc(Cl)cc2)c2ccccc12 | inactive; up to 5 mM
18 | NC(=O)C(=O)c1cn(Cc2ccc(Cl)cc2Cl)c2ccccc12 | inactive; up to 10 µM
19 | COc1cc(OC)c2c(c1)OC(c1ccc(OC)c(OC)c1)C(O)C2=O (stereo not given) | inactive; up to 10 µM
20 | COc1ccc2[nH]c(C)c(CCN3C(=O)C4CCCCC4C3=O)c2c1 (stereo not given) | inactive; up to 50 µM
21 | O=C1c2c(O)cc(O)cc2OC(c2ccc(O)c(O)c2)C1O (stereo not given) | inactive; up to 50 µM
22 | COc1ccc(Cc2nc(-c3nonc3N)no2)cc1OC | inactive; up to 100 mM
23 | COc1ccc(-c2nc(C)n3ccc4cc(OC)c(OC)cc4c23)cc1OC | inactive; up to 10 µM
24 | c1cncc(CNc2cn[nH]c2-c2nnc(Nc3ccc4c(c3)OCO4)o2)c1 | inactive; up to 10 µM

Row | SMILES | outcome
25 | O=C(Nc1cccnc1Cl)C(=O)c1cn(Cc2ccc(Cl)cc2)c2ccccc12 | inactive; up to 2.5 mM
26 | O=C(Nc1cccc(F)c1)C(=O)c1cn(Cc2ccc(Cl)cc2)c2ccccc12 | inactive; up to 5 mM
27 | Cc1onc(-c2ccccc2Cl)c1C(=O)Nc1cccnc1 | inactive; up to 50 µM
28 | COc1cc(N)c(C(O)c2nccc3cc(OC)c(OC)cc23)cc1OC (stereo not given) | inactive; up to 50 µM
29 | COc1ccc(Cc2nn[nH]n2)cc1OC | inactive; up to 50 µM
30 | COc1cc(-c2nnc(Nc3ccc4c(c3)OCO4)o2)cc(OC)c1OC | inactive; up to 5 µM
31 | COc1ccc(-c2nn[nH]n2)cc1OC | inactive; up to 100 µM
32 | c1cc(-c2nc(-c3ccc4c(c3)OCO4)no2)ccn1 | inactive; up to 50 µM
33 | Cn1cnc(NCc2cccnc2)c1-c1nnc(Nc2ccc3c(c2)OCCO3)o1 | inactive; up to 2.5 µM
34 | Nc1nonc1-c1nc2ccccc2n1Cc1cccc(F)c1 | inactive; up to 1 mM
35 | COc1cc(C(=O)NCCc2c(C)[nH]c3ccc(OC(F)(F)F)cc23)cc(OC)c1OC | inactive; up to 50 µM
36 | COc1ccc2[nH]cc(CCNC(C)=O)c2c1 | inactive; up to 50 µM
37 | O=C(Nc1ccc(OC(F)(F)F)cc1)C(=O)c1cn(Cc2ccc(Cl)cc2)c2ccccc12 | inactive; up to 1 µM
38 | CC(=O)OC1C(=O)C2C(O)CC3OCC3(OC(C)=O)C2C(OC(=O)c2ccccc2)C2(O)CC(OC(=O)C(O)C(NCc3ccccc3)c3ccccc3)C(C)=C1C2(C)C (stereo not given) | inactive; up to 50 µM
39 | Nc1[nH]ncc1-c1nnc(Nc2ccc3c(c2)OCO3)o1 | inactive; up to 20 mM
40 | Nc1cc2c(cc1C(=O)c1ccccc1)OCCO2 | inactive; up to 5 mM
41 | CCOc1ccc(-c2cn[nH]c2N)cc1OCC | inactive; up to 40 mM
42 | Nc1csnc1-c1nnc(Nc2ccc3c(c2)OCO3)o1 | inactive; up to 5 µM
43 | COc1ccc(CNc2ccccc2-c2nn[nH]n2)cc1OC | inactive; up to 20 mM
44 | Nc1nc2ccccc2cc1-c1nnc(Nc2ccc3c(c2)OCO3)o1 | inactive; up to 2 mM
45 | Nc1nonc1-c1cccnc1 | inactive; up to 100 mM
46 | CCN(CC)C(=O)C(=O)c1cn(Cc2ccc(F)cc2)c2ccccc12 | inactive; up to 50 µM
47 | COc1ccc2[nH]cc(CCN3C(=O)OC(C)(C)C3(C)O)c2c1 (stereo not given) | inactive; up to 10 µM
48 | COc1ccc2[nH]cc(CCNC(=O)C(F)(F)F)c2c1 | inactive; up to 50 µM

Row | SMILES | outcome
49 | Clc1ccc(-c2[nH]c(-c3cccc(C#Cc4ccccc4)c3)nc2-c2ccccc2)cc1 | inactive; up to 5 mM
50 | COc1ccc(/C=C(/C(=O)O)c2cc(OC)c(OC)c(OC)c2)cc1O | inactive; up to 10 mM
51 | COc1ccc2[nH]c(C)c(CCNC(=O)c3ccc(OC)c(OC)c3)c2c1 | inactive; up to 50 µM
52 | Brc1cccc(-c2n[nH]c(-c3[nH]ncc3NCc3ccc4c(c3)OCO4)n2)c1 | inactive; up to 5 mM
53 | CCOc1ccc(C2=C3c4cc(OCC)c(OCC)cc4CCN3C(=O)C2=O)cc1OCC | inactive; up to 50 µM
54 | O=C(Nc1ccc(Cl)cc1)C(=O)c1cn(Cc2ccc(Cl)cc2)c2ccccc12 | inactive; up to 5 mM
55 | NC(=O)c1nscc1NCc1ccncc1 | inactive; up to 5 µM
56 | COc1ccc2[nH]c(C(=O)O)c(CCNC(C)=O)c2c1 | inactive; up to 50 µM
57 | COc1ccc(-c2oc(=O)oc2-c2ccc(OC)c(OC)c2)cc1OC | inactive; up to 5 mM
58 | O=C(Nc1cccc(Cl)c1)C(=O)c1cn(Cc2ccc(Cl)cc2)c2ccccc12 | inactive; up to 5 mM
59 | Cc1nc2ccccn2c1-c1csc(Nc2ccc(Br)cc2Br)n1 | inactive; up to 5 mM
60 | COC(=O)c1cc(=O)c(O)c2c(O)c(O)c(OC)cc2c1 | inactive; up to 20 mM
61 | COc1ccc(C2=NOC3C4COC(O4)C(=O)C23)cc1 (stereo not given) | inactive; up to 5 mM
62 | O=C(Nc1ccc(Br)cc1)C(=O)c1cn(Cc2ccc(Cl)cc2)c2ccccc12 | inactive; up to 5 mM
63 | CC(=O)Nc1ccccc1-c1cc(C)c2ccccc2n1 | inactive; up to 50 µM
64 | Nc1cn[nH]c1-c1nc(-c2ccc(C(F)(F)F)cc2)n[nH]1 | inactive; up to 50 mM
65 | Brc1ccc(-c2n[nH]c(-c3[nH]ncc3NCc3ccncc3)n2)cc1 | inactive; up to 20 mM
66 | COc1cc2ccnc(-c3c[nH]c4cc(OC)c(OC)cc34)c2cc1OC | inactive; up to 10 µM
67 | Cc1ccc(Nc2nc(-c3c(C)nc4ccccn34)cs2)c(C)c1 | inactive; up to 5 mM
68 | O=C(Nc1cccc(C(F)(F)F)c1)c1nscc1NCc1ccncc1 | inactive; up to 1 µM
69 | O=C(Nc1ccc(C(F)(F)F)cc1)C(=O)c1cn(Cc2ccc(Cl)cc2)c2ccccc12 | inactive; up to 0.5 µM
70 | NC(=O)C(=O)c1cn(Cc2ccc(F)cc2)c2ccccc12 | inactive; up to 50 µM
